According to publication PMC6271220, “Synthesis, Molecular Docking and Biological Evaluation of Glycyrrhizin Analogs as Anticancer Agents Targeting EGFR” (Molecules, 2014):

Key:
[1] = system: HepG2 (hepatocellular carcinoma); assay: CCK-8 anti-proliferative assay, HepG2; format: cell-based; conditions: Homo sapiens, CCK-8 assay, average of three independent experiments in triplicate
Description: (§1) CCK8 is much more convenient and helpful than MTT for analyzing cell proliferation, because it can be reduced to soluble formazan by dehydrogenase in mitochondria and has little toxicity to cells. Cell proliferation was determined using CCK8 dye (BeyotimeInst Biotech, Shanghai, China) according to manufacturer’s instructions. Briefly, 1–5 × 10^3 cells per well were seeded in a 96-well plate, grown at 37 °C for 12 h, Subsequently, cells were treated with compounds at increasing concentrations in the presence of 10% FBS for 24 or 48 h. After 10 µL CCK8 dye was added to each well, cells were incubated at 37 °C for 1–2 h and Plates were read in a Victor-V multilabel counter (Perkin-Elmer, Waltham, MA, USA) using the default europium detection protocol. Percent inhibition or IC50 values of compounds were calculated by comparison with DMSO-treated control wells.

[2] = system: HeLa (cervix of uterus adenocarcinoma); assay: CCK-8 anti-proliferative assay, HeLa; format: cell-based; conditions: Homo sapiens, CCK-8 assay, average of three independent experiments in triplicate
Description: as §1

A549 (lung carcinoma) = assay: CCK-8 anti-proliferative assay, A549; format: cell-based; conditions: Homo sapiens, CCK-8 assay, average of three independent experiments in triplicate
Description: as §1

EGFR = molecular target: T1, EGFR (Homo sapiens, UniProt P00533); assay: EGFR kinase autophosphorylation assay (DELFIA/time-resolved fluorometry); format: biochemical; conditions: in vitro EGFR enzyme inhibition
T1 construct: EGFR cytoplasmic domain (EGFR-CD, amino acids 645–1186); (His)6 (N); made in house; host or cells: Sf-9 insect cells (baculovirus)
T1 sequence (P00533 669-1210): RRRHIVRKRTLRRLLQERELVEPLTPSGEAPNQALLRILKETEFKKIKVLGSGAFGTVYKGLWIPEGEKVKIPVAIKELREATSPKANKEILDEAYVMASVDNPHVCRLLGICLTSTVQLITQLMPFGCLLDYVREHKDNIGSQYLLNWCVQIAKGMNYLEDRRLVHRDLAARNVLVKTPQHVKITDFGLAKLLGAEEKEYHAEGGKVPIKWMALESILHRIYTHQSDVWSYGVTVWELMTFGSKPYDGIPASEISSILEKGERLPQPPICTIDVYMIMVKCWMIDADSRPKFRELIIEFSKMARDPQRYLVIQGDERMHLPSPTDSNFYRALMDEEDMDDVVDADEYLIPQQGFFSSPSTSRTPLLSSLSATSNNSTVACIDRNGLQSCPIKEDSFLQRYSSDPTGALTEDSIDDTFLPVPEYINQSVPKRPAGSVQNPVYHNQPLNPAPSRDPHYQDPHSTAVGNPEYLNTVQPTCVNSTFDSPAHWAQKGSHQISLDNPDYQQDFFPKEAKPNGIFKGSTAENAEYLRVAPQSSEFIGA
Description: A sequence that encodes (His)6 was located at the 5′ upstream to the EGFR sequences. Sf-9 cells were infected for 3 days for protein expression. Sf-9 cell pellets were solubilized at 0 °C in a buffer at pH 7.4 containing 50 mM HEPES, 10 mM NaCl, 1% Triton, 10 µM ammonium molybdate, 100 µM sodium vanadate, 10 µg/mL aprotinin, 10 µg/mL leupeptin, 10 µg/mL pepstatin, and 16 µg/mL benzamidine HCl for 20 min followed by 20 min centrifugation. Crude extract supernatant was passed through an equilibrated Ni-NTA superflow packed column and washed with 10 mM and then 100 mM imidazole to remove nonspecifically bound material. Histidine tagged proteins were eluted with 250 and 500 mM imidazole and dialyzed against 50 mM NaCl, 20 mM HEPES, 10% glycerol, and 1 µg/mL each of aprotinin, leupeptin and pepstatin for 2 h. The entire purification procedure was performed at 4 °C or on ice.
EGFR kinase assays were set up to assess the level of autophosphorylation based on DELFIA/Time-Resolved Fluorometry. All compounds were dissolved in 100% DMSO and diluted to the appropriate concentrations with 25 mM HEPES at pH 7.4. In each well, 10 µL compound was incubated with 10 µL (5 ng for EGFR) recombinant enzyme (1:80 dilution in 100 mM HEPES) for 10 min at room temperature. Then, 10 µL of 5 mM buffer (containing 20 mM HEPES, 2 mM MnCl2, 100 µM Na3VO4 and 1 mM DTT) and 20 µL of 0.1 mM ATP–50 mM MgCl2 were added for 1 h. Positive and negative controls were included in each plate by incubation of enzyme with or without ATP–MgCl2. At the end of incubation, liquid was aspirated, and plates were washed three times with wash buffer. A 75 µL (400 ng) sample of europium labeled anti-phosphotyrosine antibody was added to each well for another 1 h of incubation. After washing, enhancement solution was added and the signal was detected by Victor (Wallac Inc., Gaithersburg, MD, USA) with excitation at 340 nm and emission at 615 nm. The percentage of auto-phosphorylation inhibition by the compounds was calculated using the following formula: 100% − [(negative control)/(positive control − negative control)]. The IC50 was obtained from curves of percentage inhibition with eight concentrations of compound.

[3] = system: S180 (sarcoma tumer cell line); assay: In vivo tumor xenograft model, S180 tumor-bearing mice; design: species or system Kunming mice; conditions: 60 mg/kg/day oral gavage, ten days; for Inhibition rate: from average tumor weights vs control
Description: (§2) Kunming mice (SPF, male or female, 20 ± 2 g) were purchased from the experimental animal center of China Pharmaceutical University. Animals were housed in a temperature (22 ± 2 °C) and relatively humidity (50%)-controlled room on a 12 h light/dark cycle, given free access to food and water, and acclimatized for at least one week prior to use. All the animal experiments were performed in accordance with the Regulations of the Experimental Animal Administration issued by the State Committee of Science and Technology of China.
(§3) Cell lines used for evaluation of the in vivo antitumor activity in this study included three tumor cell lines, namely S180 (sarcoma tumer cell line), HepG2 (liver carcinoma cell line), EAC (Ehrlich ascites carcinoma cell line). All of cell lines were purchased by the Shanghai Institutes for Biological Sciences, Chinese Academy of Sciences, and the cells were cultured in RPMI-1640 medium, which was supplemented with 10% heat-inactivated fetal bovine serum, 100 U/mL penicillin and 100 U/mL streptomycin and cultured in an atmosphere of 5% CO2 at 37 °C. Cells were collected for the experiments in the logarithmic growth phase.
(§4) To establish the tumor-bearing mouse model, the cell lines were harvested and inoculated subcutaneously into the right armpit region of the mice. On the 7th day, the tumor ascrites were obtained and washed with sterile PBS. Under sterile condition, the tumor ascrites were diluted with sterile nomal saline to 1 × 10^10 /L cell suspension. Tumor ascites were maintained in vivo in mice by transplantation of 0.2 mL of ascites (2 × 10^6 cells) from the infected mice to the non-infected mice.
(§5) Each Kunming mouse (male or female, weight 20 ± 2 g) were inoculated with seven-day-old ascrite (0.2 mL, 2 × 10^6 cells) subcutaneously into the right front armpit. 24 h after implantation of tumor cells, the mice were randomly divided into five test groups with 10 mice per group. Each mouse was weighed immediately after inoculation. The mice were treated by oral gavage with test samples (60 mg/kg/day) or normal saline (NS, 10 mL/kg) for ten days once daily. On day 11, the mice were sacrificed via cervical dislocation, and the mouse and tumor were excised and weighed for evaluating the tumor growth inhibition. The tumor inhibitory rate was calculated by the following formula: [drawing 5] (1) where Wcontrol and Wtreated were the average tumor weights of the control and treated mice, respectively. […] The effect of glycyrrhizin analogs on percentage increases in life span was calculated on the basis of mortality of the experimental mice: […]

[4] = system: HepG2 (liver carcinoma cell line); assay: In vivo tumor xenograft model, HepG2 tumor-bearing mice; design: species or system Kunming mice; conditions: 60 mg/kg/day oral gavage, ten days; for Inhibition rate: from average tumor weights vs control
Description: as §2, §3, §4, §5

[5] = system: EAC (Ehrlich ascites carcinoma cell line); assay: Survival of EAC tumor-bearing mice; format: in vivo, Kunming mice; conditions: for Survival time: control 16.40 ± 2.07 d; for Survival rate: percentage increase in life span vs control
Description: as §2, §3, §4, §5

Row | Structure (SMILES) | IC50 [1] | IC50 [2] | IC50 (A549 (lung carcinoma)) | IC50 (EGFR) | Body weight End [3] | Tumor weight [3] | Inhibition rate [3] | Body weight End [4] | Tumor weight [4] | Inhibition rate [4] | Survival time [5] | Survival rate [5]
1 | CC1(C(=O)O)CCC2(C)CCC3(C)C(=CC(=O)C4C5(C)CCC(OC6OC(C(=O)O)C(O)C(O)C6OC6OC(C(=O)O)C(O)C(O)C6O)C(C)(C)C5CCC43C)C2C1 (stereo not drawn) [18α-GA, 18α-Glycyrrhizin] | 54.2 µM | 15.1 µM | 41.6 µM | 0.081 µM | 25.20 ± 1.11 g | 1.29 ± 0.47 g | 32.5% | 26.08 ± 1.26 g | 1.22 ± 0.46 g | 37.4% | 19.75 ± 3.08 days | 20.4%
2 | CC1(C)[C@@H](O[C@@H]2O[C@H](C(=O)O)[C@@H](O)[C@H](O)[C@H]2O)CC[C@]2(C)[C@H]3C(=O)C=C4[C@H]5C[C@@](C)(C(=O)O)CC[C@]5(C)CC[C@@]4(C)[C@]3(C)CC[C@@H]12 [18α-GAMG] | 6.67 µM | 7.43 µM | 15.8 µM | 0.028 µM | 25.25 ± 1.80 g | 1.15 ± 0.50 g | 39.8% | 27.02 ± 2.10 g | 0.98 ± 0.43 g | 49.7% | 23.85 ± 5.41 days | 45.4%
3 | CC1(C)[C@@H](O[C@H]2O[C@H](C(=O)O)[C@@H](O)[C@H](O)[C@H]2O[C@@H]2O[C@H](C(=O)O)[C@@H](O)[C@H](O)[C@H]2O)CC[C@]2(C)[C@H]3C(=O)C=C4[C@@H]5C[C@@](C)(C(=O)O)CC[C@]5(C)CC[C@@]4(C)[C@]3(C)CC[C@@H]12 [18β-GA, Glycyrrhizin] | 63.6 µM | 18.9 µM | 51.9 µM | 0.092 µM | 24.48 ± 2.37 g | 1.33 ± 0.67 g | 30.4% | 26.94 ± 2.05 g | 1.26 ± 0.65 g | 35.4% | 19.40 ± 3.77 days | 18.3%
4 | CC1(C)[C@@H](O[C@@H]2O[C@H](C(=O)O)[C@@H](O)[C@H](O)[C@H]2O)CC[C@]2(C)[C@H]3C(=O)C=C4[C@@H]5C[C@@](C)(C(=O)O)CC[C@]5(C)CC[C@@]4(C)[C@]3(C)CC[C@@H]12 [18β-GAMG, glycyrrhetic acid 3-O-mono-β-D-glucuronide] | 33.6 µM | 8.39 µM | 21.6 µM | 0.069 µM | 25.02 ± 2.58 g | 1.25 ± 0.19 g | 34.6% | 27.8 ± 1.57 g | 1.20 ± 0.35 g | 38.4% | 21.05 ± 4.65 days | 28.4%
5 | C#Cc1cccc(Nc2ncnc3cc(OCCOC)c(OCCOC)cc23)c1 [Erlotinib, reference compound] | 0.12 µM | 0.2 µM | 0.13 µM | – | – | – | – | – | – | – | – | –
